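Each compound was tested at five concentrations against cells in 96-well plates for 48 hours. TGI is the concentration that stops growth completely.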
Columns and labels:
Assay in all cases: NCI anticancer screen, dose series, 48 h
CCRF-CEM leukemia = system: CCRF-CEM leukemia
EKVX NSCLC = system: EKVX NSCLC
HCT-15 colon = system: HCT-15 colon
HS 578T breast = system: HS 578T breast
IGROV1 ovarian = system: IGROV1 ovarian
K-562 leukemia = system: K-562 leukemia
MCF7 breast = system: MCF7 breast
MOLT-4 leukemia = system: MOLT-4 leukemia
NCI-H522 lung = system: NCI-H522 lung
NCI/ADR-RES ovarian = system: NCI/ADR-RES ovarian
PC-3 prostate = system: PC-3 prostate
SNB-19 CNS = system: SNB-19 CNS
TK-10 renal = system: TK-10 renal
UACC-62 melanoma = system: UACC-62 melanoma
MDA-MB-231 breast = system: MDA-MB-231 breast
RXF 393 renal = system: RXF 393 renal
SK-OV-3 ovarian = system: SK-OV-3 ovarian
SNB-75 CNS = system: SNB-75 CNS
A498 renal = system: A498 renal

Row | SMILES | TGI (CCRF-CEM leukemia) [µM] | TGI (EKVX NSCLC) [µM] | TGI (HCT-15 colon) [µM] | TGI (HS 578T breast) [µM] | TGI (IGROV1 ovarian) [µM] | TGI (K-562 leukemia) [µM] | TGI (MCF7 breast) [µM] | TGI (MOLT-4 leukemia) [µM] | TGI (NCI-H522 lung) [µM] | TGI (NCI/ADR-RES ovarian) [µM] | TGI (PC-3 prostate) [µM] | TGI (SNB-19 CNS) [µM] | TGI (TK-10 renal) [µM] | TGI (UACC-62 melanoma) [µM] | TGI (MDA-MB-231 breast) [µM] | TGI (RXF 393 renal) [µM] | TGI (SK-OV-3 ovarian) [µM] | TGI (SNB-75 CNS) [µM] | TGI (A498 renal) [µM]
1 | CC(=O)OC[C@@]12CC[C@H]3C(C)(C)CCC[C@]3(C)[C@H]1C[C@@H](C1=CC(=O)O[C@H]1O)O2 | 3.62 | 24.3 | 5.15 | 17 | 5.78 | 3.56 | 11.2 | 6.23 | 8.03 | 16.1 | 17.4 | 37.2 | 12 | 4.74 |  |  |  |  | 
2 | Nc1ccc(S(=O)(=O)Nc2nc3ccccc3nc2Nc2ccc(S(N)(=O)=O)cc2)cc1 | > 100 | > 100 | > 100 | > 100 | > 100 | > 100 | > 100 | 93.3 | 96.6 | > 100 | > 100 | > 100 | > 100 | > 100 | > 100 | 62 | > 100 | 69.6 | 
3 | NC(N)=NS(=O)(=O)c1ccc(Nc2c3ccccc3nc3ccc(C(=O)Nc4ccc(S(N)(=O)=O)cc4)cc23)cc1 | > 100 | > 100 | > 100 | > 100 | > 100 | > 100 | > 100 | > 100 | > 100 | > 100 | > 100 | > 100 | > 100 | > 100 | > 100 | > 100 | > 100 | > 100 | 
4 | CCOC(=O)CC/C(C)=N\n1c(Cc2ccc(Cl)cc2)n[nH]c1=O |  |  | > 100 | > 100 | > 100 | > 100 | > 100 | > 100 | > 100 | > 100 | > 100 | > 100 | > 100 | > 100 | > 100 | > 100 |  | > 100 | 
5 | COc1ccc(Cc2nc3cc(Cl)ccc3o2)cc1 | > 100 | 78.6 | > 100 | > 100 | > 100 | > 100 | > 100 | > 100 | > 100 | 76.9 | > 100 | > 100 | > 100 | > 100 | > 100 | 70.2 | > 100 | 59.1 | 
6 | Nn1c(-c2ccccc2Nc2ccccc2-c2n[nH]c(=S)n2N)n[nH]c1=S | > 50 | > 50 | > 50 |  | > 50 | > 50 | > 50 | > 50 | > 50 | > 50 | > 50 | > 50 | > 50 | > 50 |  | > 50 |  | > 50 | 
7 | CC(C)=CCC/C(C)=C/CC/C(C)=C/[C@@H]1[C@@H](CO)[C@]1(C)CC/C=C(\C)CCC=C(C)C | 45.2 | 48.2 | > 100 | > 100 | 27.5 | > 100 |  | > 100 | 32.7 | 55 | 56.5 | > 100 | > 100 |  | 52.2 | 72.8 | > 100 | > 100 | > 100
8 | CC(=O)Oc1ccn2nc(C)c(Cc3c(C)nn4ccc(OC(C)=O)cc34)c2c1 | 76.6 | > 100 | > 100 | > 100 | > 100 | > 100 | > 10 | > 100 | > 100 | > 100 | > 10 | > 100 | > 100 | > 100 | > 100 |  |  | > 100 | 
9 | NNC(=O)CC(=O)Nc1ccc(C(=O)O)cc1 | > 100 | > 100 | > 100 | > 100 | > 100 | > 100 | > 100 | > 100 | > 100 | > 100 | > 100 | > 100 | > 100 | > 100 | > 100 | > 100 | > 100 | > 100 | 
10 | C=CC1(c2ccc(Cl)c(Cl)c2)OCCO1 | > 100 | > 100 | > 100 | > 100 | > 100 | > 100 | > 100 | > 100 | > 100 | > 100 | > 100 | > 100 | > 100 | > 100 | 3.48 | > 100 | > 100 | 55.2 | 
11 | CC(=O)O[C@@]12[C@@H]3O[C@@]4(O)C[C@]5(C)[C@H]6C[C@@](C(C)C)(O[C@H]5c5ccoc5)O[C@H]1[C@]6(C4)O[C@]2(O)C(C)=CC3(C)C | > 100 | > 100 | > 100 | > 100 | > 100 | > 100 | > 100 | > 100 | > 100 | > 100 | > 100 | > 100 | > 100 | > 100 | > 100 | > 100 | > 100 | > 100 | 
12 | COC(=O)C1=C(O)C(C(=O)OC)[C@]2(O)[C@H](C(=O)OC)[C@H]1C[C@@H](c1ccccc1OC)[C@H]2C(=O)OC (some centres not stated) | 21.1 | 29.6 | 13.5 | 11 | 11.3 | > 38.9 |  | 25.5 | 5 | 8.89 | 20.7 | 19.7 | > 54.7 | 18.3 | 29.7 | 20.2 | > 50.9 | > 71.3 | 17.4
13 | NC(=S)SC1=NNC2(C(=O)N1)c1ccccc1-c1ccccc12 | > 10 | > 10 | > 10 | > 10 | > 10 |  | > 10 |  | > 10 | > 10 | > 10 | > 10 | > 10 | > 10 | > 10 | > 10 | > 10 | > 10 | 
14 | CC1=C(C(=O)OCCc2ccc([N+](=O)[O-])cc2)C(c2ccccc2C(F)(F)F)C(C(=O)OC(C)C)=C(C)N1 (configuration not stated) | > 100 | 6.51 | > 100 | 61.6 | > 100 | > 100 | > 100 | 7.95 | 7.5 | > 100 | > 100 | > 100 | > 100 | 36.5 | > 100 | 7.34 | 30.6 | > 100 | 
15 | OCC1C(O)C(O)[C@@H]2SCCN12 (some centres not stated) | > 100 | > 100 | > 100 | > 100 | > 100 | > 100 |  | > 100 | > 100 | > 100 | > 100 | > 100 | > 100 | > 100 | > 100 | > 100 | > 100 | > 100 | > 100
16 | N#Cc1cc2c(n(C3OC(CO)C(O)C(O)C3O)c1=S)CCCCC2 (configuration not stated) | > 100 |  | > 100 | > 100 | > 100 | > 100 | > 100 | > 100 | > 100 | > 100 | > 100 | > 100 | > 100 | > 100 | > 100 | > 100 |  | > 100 | > 100
17 | CC(C)N(CCCNc1c2ccccc2nc2cccc([N+](=O)[O-])c12)C(C)C | 0.0806 |  | 0.012 |  |  | 62.3 | 13.2 |  |  | 3.68 | 0.527 | 0.121 |  |  | < 0.01 | 0.0377 |  | 0.149 | 0.0433
18 | CSc1sc(C)cc1-c1nsc(=O)o1 | > 100 | > 100 | > 100 | > 100 | > 100 | > 100 | > 100 | > 100 | > 100 | > 100 | > 100 | > 100 |  | > 100 |  | > 100 |  |  | > 100
19 | CCOC(=O)CSc1[nH]c2nc(C)nc(Cl)c2c1C#N | > 10 | > 10 | > 10 |  | > 10 | > 10 | > 10 | > 10 |  |  | > 10 |  | > 10 | > 10 | > 10 | > 10 | > 10 | > 10 | 
20 | COc1cc(S(=O)(=O)N/N=C/C=C/c2ccccc2)c(OC)cc1NC(C)=O | > 100 | > 100 | > 100 | > 100 | > 100 |  | > 100 |  | > 100 | > 100 | > 100 | > 100 |  | > 100 |  | > 100 | > 100 | > 100 | > 100
21 | CCN(CC)C(=O)C1=C(C)NC(C)=C(C(=O)N(CC)CC)C1 | > 100 | > 100 | > 100 | > 100 | > 100 | > 100 | > 100 | > 100 | > 100 |  | > 100 | > 100 | > 100 | > 100 | > 100 | > 100 | > 100 | 93.4 | > 100
22 | C/C(=N\N=C(\N)OB(F)F)c1ccccn1 | 73.1 | > 100 | > 100 | > 100 | > 100 | > 100 | > 100 |  | > 100 | > 100 |  | > 100 | > 100 | > 100 | > 100 | 42.6 |  | 55.7 | > 100
23 | Cn1c(=O)c2[nH]c(/N=N\n3ccc4ccccc43)nc2n(C)c1=O | > 100 | > 100 | > 100 | > 100 |  | > 100 |  | > 100 | > 100 | > 100 | > 100 | > 100 | > 100 | > 100 | > 100 | > 100 | > 100 | > 100 | > 100
24 | CN(C)S(=O)(=O)n1ccnc1 |  | > 100 | > 100 |  | > 100 | > 100 | > 100 | > 100 | > 100 | > 100 | > 100 | > 100 | > 100 |  | > 100 | > 100 | > 100 | > 100 | > 100
25 | CCC(C)[C@H]1C(=O)N=C(N)N1C(=O)OCc1ccccc1 (some centres not stated) |  | > 100 | > 100 |  | > 100 | > 100 | > 100 | > 100 | > 100 | > 100 | > 100 | > 100 | > 100 | > 100 | > 100 | > 100 |  | > 100 | > 100
26 | NS(=O)(=O)c1cc(S(N)(=O)=O)c(NC(=O)Nc2ccc(Cl)c(Cl)c2)c(Cl)c1Cl |  | > 100 | > 100 | > 100 | > 100 | > 100 | > 100 | > 100 | > 100 | > 100 | > 100 | > 100 | > 100 | > 100 | > 100 |  | > 100 |  | 
27 | Fc1ccc(C2(CCCN3CCc4[nH]c5cc(F)ccc5c4C3)OCCO2)cc1 | 31.4 | 29.1 | 31 | 17.4 | 35.4 | 18.3 | 25.3 | 21.9 |  | > 100 |  | 23.3 | 28.1 | 26.7 | 35 | 26.7 | 26.7 | 25.1 | 28.9

From PubChem BioAssay (NCI)
